Assays:
AtSLAC1 [1] = biological target: T1, AtSLAC1 (Arabidopsis thaliana, UniProt Q9LD83); conditions: 30 mM CsCl bath, pH 5.6; permeant anion; no AtOST1
T1 sequence (Q9LD83 1-556): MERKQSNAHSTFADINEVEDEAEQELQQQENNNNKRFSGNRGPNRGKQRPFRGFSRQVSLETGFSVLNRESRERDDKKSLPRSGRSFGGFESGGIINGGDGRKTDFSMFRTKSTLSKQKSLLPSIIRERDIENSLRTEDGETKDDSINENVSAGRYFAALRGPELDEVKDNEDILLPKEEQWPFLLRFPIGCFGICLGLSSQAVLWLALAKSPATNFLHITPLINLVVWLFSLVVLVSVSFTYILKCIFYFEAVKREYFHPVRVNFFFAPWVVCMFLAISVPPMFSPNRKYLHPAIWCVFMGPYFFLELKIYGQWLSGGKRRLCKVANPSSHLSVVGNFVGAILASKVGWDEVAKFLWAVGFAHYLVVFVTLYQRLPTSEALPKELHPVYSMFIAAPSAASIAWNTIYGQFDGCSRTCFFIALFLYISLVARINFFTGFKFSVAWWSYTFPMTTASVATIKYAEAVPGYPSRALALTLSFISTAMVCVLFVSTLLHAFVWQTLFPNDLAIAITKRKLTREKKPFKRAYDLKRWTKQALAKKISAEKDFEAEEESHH

AtSLAC1 [2] = biological target: T1, AtSLAC1; assay: two-electrode voltage clamp, Xenopus oocytes; type: cell-based; conditions: 50 mM sodium salt in bath, pH 5.6; permeant anion

SMILES | chloride current at -90 mV (AtSLAC1 [1]) | P[X]/P[Cl] (AtSLAC1 [2])
Cl [chloride] | We observed modest-sized chloride currents with wild-type AtSLAC1 cRNA | –
O=[N+]([O-])O [nitrate] | – | selective among anions, with greater permeability for nitrate than for chloride
